Test results from patent publication EP4678638A1, “NEW E3 UBIQUITIN LIGASE LIGAND, PROTEIN DEGRADATION AGENT AND USE THEREOF” (priority 2023, dated 2024).

Each compound was assayed against T1, FAK (Homo sapiens, UniProt Q05397) (assay: Western blot degradation of FAK). Settings: Table D7.
T1 construct: evaluate the effects of the compounds of the present disclosure on the expression of target proteins in cells; endogenous in cells
Assay type: cell-based
Method: Conventional Western blot assay was performed to evaluate the effects of the compounds of the present disclosure on the expression of target proteins in cells.
(1) Cell Seeding and Protein Harvesting: The selected cells were processed according to the cell seeding procedure and protein harvesting procedure in Table III-2. Table III-2 Cell Seeding and Protein Harvesting Procedures
(2) To the collected supernatant, 5X SDS sample loading buffer was added, followed by denaturation at 95°C for 5 minutes. The denatured samples were then separated by SDS-PAGE electrophoresis on a polyacrylamide gel. Proteins were transferred to a nitrocellulose membrane (0.45 µm NC membrane), blocked with blocking buffer at room temperature for 1 hour, and subjected to antibody incubation and development procedures according to the antibody manufacturer's instructions (Cell Signaling Technology).
Half-Maximal Degradation Concentration value (the drug concentration required for degrading proteins by 50%, abbreviated as DC50) reads method: comparing the grayscale values of Western blot bands from drug-treated samples with those from blank DMSO-treated controls, and identifying the drug concentration range at which the grayscale value is half that of the DMSO-treated control bands.
DC50 values can be calculated using ImageJ software to measure grayscale values of Western blot bands from drug-treated samples. The concentration-response curve is fitted to estimate the drug concentration corresponding to half the grayscale value.
Target protein remaining (%) refers to the percentage of target protein remaining in hPBMC cells after treatment with protein degrader compounds.
Calculation method for target protein remaining (%): Use ImageJ software to measure grayscale values of Western blot bands from drug (protein degrader)-treated samples. The grayscale value of drug-treated bands is divided by that of internal control protein bands, and the resulting quotient is normalized to obtain the relative percentage of remaining target protein after protein degrader treatment.
Target protein degradation rate (%) = 100% - target protein remaining (%).

T1 sequence (Q05397 whole entry, species assumed): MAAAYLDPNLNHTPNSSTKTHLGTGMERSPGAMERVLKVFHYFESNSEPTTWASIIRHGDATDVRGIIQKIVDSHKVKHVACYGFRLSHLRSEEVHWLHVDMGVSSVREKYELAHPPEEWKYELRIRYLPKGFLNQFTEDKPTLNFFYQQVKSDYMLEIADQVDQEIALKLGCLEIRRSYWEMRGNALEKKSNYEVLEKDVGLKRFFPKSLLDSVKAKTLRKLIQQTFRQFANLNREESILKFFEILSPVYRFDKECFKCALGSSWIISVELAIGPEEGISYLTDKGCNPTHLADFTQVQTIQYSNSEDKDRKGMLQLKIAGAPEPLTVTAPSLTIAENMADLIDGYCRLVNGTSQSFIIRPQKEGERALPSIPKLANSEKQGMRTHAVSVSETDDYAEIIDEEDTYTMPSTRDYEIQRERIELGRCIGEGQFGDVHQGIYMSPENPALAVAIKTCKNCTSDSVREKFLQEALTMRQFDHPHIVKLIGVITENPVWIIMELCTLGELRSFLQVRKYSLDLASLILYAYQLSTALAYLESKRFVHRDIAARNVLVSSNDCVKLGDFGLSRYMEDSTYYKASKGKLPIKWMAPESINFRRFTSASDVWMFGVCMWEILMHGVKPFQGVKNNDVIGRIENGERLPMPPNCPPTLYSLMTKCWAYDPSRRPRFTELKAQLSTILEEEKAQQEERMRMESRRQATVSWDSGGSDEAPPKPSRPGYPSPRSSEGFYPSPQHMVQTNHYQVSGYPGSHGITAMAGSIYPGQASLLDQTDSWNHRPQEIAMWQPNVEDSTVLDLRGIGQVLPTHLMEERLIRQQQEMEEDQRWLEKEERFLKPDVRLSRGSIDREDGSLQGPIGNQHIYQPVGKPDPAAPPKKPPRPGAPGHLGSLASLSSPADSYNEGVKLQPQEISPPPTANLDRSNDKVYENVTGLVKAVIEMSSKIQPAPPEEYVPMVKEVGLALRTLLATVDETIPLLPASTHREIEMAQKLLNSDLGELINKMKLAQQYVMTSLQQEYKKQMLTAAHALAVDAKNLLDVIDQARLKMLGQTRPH

| SMILES | Degradation of substrate protein FAK (substrate protein remaining %) |
| --- | --- |
| CS(=O)(=O)c1cccc(CNc2nc(Nc3ccc(N4CCN(Cc5cccc(N6CCC(=O)NC6=O)c5)CC4)cc3)ncc2C(F)(F)F)c1 [GT-04178, 1-(3-((4-(4-((4-((3-(methylsulfonyl)benzyl)amino)-5-(trifluoromethyl)pyrimidin-2-yl)amino)phenyl)piperazin-1-yl)methyl)phenyl)dihydropyr imidine-2,4(1H,3H)-dione] | A (A is defined as 0% ≤ substrate protein remaining % ≤ 80%) |
| CN(c1nccnc1CNc1nc(Nc2ccc(N3CCN(Cc4ccc(N5CCC(=O)NC5=O)cc4)CC3)cc2)ncc1C(F)(F)F)S(C)(=O)=O [GT-07400, N-(3-(((2-((4-(4-(4-(2,4-dioxotetrahydropyrimidin-1(2H)-yl)benzyl)piperazin-1-yl)phenyl)amino)-5-(trifluoromethyl)pyrimidin-4-yl)amino)methyl)pyrazin-2-yl)-N-methylmethanesulfonamide] | A (A is defined as 0% ≤ substrate protein remaining % ≤ 80%) |
| CN(c1nccnc1CNc1nc(Nc2ccc(N3CCN(Cc4cccc(N5CCC(=O)NC5=O)c4)CC3)cc2)ncc1C(F)(F)F)S(C)(=O)=O [GT-07401, N-(3-(((2-((4-(4-(3-(2,4-dioxotetrahydropyrimidin-1(2H)-yl)benzyl)piperazin-1-yl)phenyl)amino)-5-(trifluoromethyl)pyrimidin-4-yl)amino)methyl)pyrazin-2-yl)-N-methylmethanesulfonamide] | A (A is defined as 0% ≤ substrate protein remaining % ≤ 80%) |
| CN(c1nccnc1CNc1nc(Nc2ccc(N3CCN(Cc4cc(N5CCC(=O)NC5=O)ncc4F)CC3)cc2)ncc1C(F)(F)F)S(C)(=O)=O [GT-07405, N-(3-(((2-((4-(4-((2-(2,4-dioxotetrahydropyrimidin-1(2H)-yl)-5-fluoropyridin-4-yl)methyl)piperazin-1-yl)phenyl)amino)-5-(trifluoromethyl)pyrimidin-4-yl)amino)methyl)pyrazin-2-yl)-N-methylmethanesulfonamide] | A (A is defined as 0% ≤ substrate protein remaining % ≤ 80%) |
| CN(c1nccnc1CNc1nc(Nc2ccc(N3CCN(Cc4ccnc(N5CCC(=O)NC5=O)c4)CC3)cc2)ncc1C(F)(F)F)S(C)(=O)=O [GT-07406, N-(3-(((2-((4-(4-((2-(2,4-dioxotetrahydropyrimidin-1(2H)-yl)pyridin-4-yl)methyl)piperazin-1-yl)phenyl)amino)-5-(trifluoromethyl)pyrimidin-4-yl)amino)methyl)pyrazin-2-yl)-N-methylmethanesulfonamide] | A (A is defined as 0% ≤ substrate protein remaining % ≤ 80%) |
| CS(=O)(=O)c1cccc(CNc2nc(Nc3ccc(N4CCN(Cc5ccnc(N6CCC(=O)NC6=O)c5)CC4)cc3)ncc2C(F)(F)F)c1 [GT-07462, 1-(4-((4-(4-((4-((3-(methylsulfonyl)benzyl)amino)-5-(trifluoromethyl)pyrimidin-2-yl)amino)phenyl)piperazin-1-yl)methyl)pyridin-2-yl)dihydropyrimidine-2,4(1H,3H)-dione] | A (A is defined as 0% ≤ substrate protein remaining % ≤ 80%) |
| CS(=O)(=O)c1cccc(CNc2nc(Nc3ccc(N4CCN(Cc5ccc(C6CCC(=O)NC6=O)cn5)CC4)cc3)ncc2C(F)(F)F)c1 (centres unmarked) [GT-07466, 3-(6-((4-(4-((4-((3-(methylsulfonyl)benzyl)amino)-5-(trifluoromethyl)pyrimidin-2-yl)amino)phenyl)piperazin-1-yl)methyl)pyridin-3-yl)piperidine-2,6-dione] | A (A is defined as 0% ≤ substrate protein remaining % ≤ 80%) |
| CN(c1nccnc1CNc1nc(Nc2ccc(N3CCN(Cc4ccnc(C5CCC(=O)NC5=O)c4)CC3)cc2)ncc1C(F)(F)F)S(C)(=O)=O (centres unmarked) [GT-07507, N-(3-(((2-((4-(4-((2-(2,6-dioxopiperidin-3-yl)pyridin-4-yl)methyl)piperazin-1-yl)phenyl)amino)-5-(trifluoromethyl)pyrimidin-4-yl)amino)methyl)pyrazin-2-yl)-N-methylmethanesulfonamide] | A (A is defined as 0% ≤ substrate protein remaining % ≤ 80%) |
| CN(c1nccnc1CNc1nc(Nc2ccc(N3CCN(Cc4cncc(C5CCC(=O)NC5=O)c4)CC3)cc2)ncc1C(F)(F)F)S(C)(=O)=O (centres unmarked) [GT-07510, N-(3-(((2-((4-(4-((5-(2,6-dioxopiperidin-3-yl)pyridin-3-yl)methyl)piperazin-1-yl)phenyl)amino)-5-(trifluoromethyl)pyrimidin-4-yl)amino)methyl)pyrazin-2-yl)-N-methylmethanesulfonamide] | A (A is defined as 0% ≤ substrate protein remaining % ≤ 80%) |
| CNC(=O)c1ccccc1Nc1cc(Nc2ccc(N3CCC(N(C)Cc4ccc(N5CCC(=O)NC5=O)cc4)CC3)cc2OC)ncc1C(F)(F)F [GT-07649, 2-((2-((4-(4-((4-(2,4-dioxotetrahydropyrimidin-1(2H)-yl)benzyl)(methyl)amino)piperidin-1-yl)-2-methoxyphenyl)amino)-5-(trifluoromethyl)pyridin-4-yl)amino)-N-methylbenzamide] | A (A is defined as 0% ≤ substrate protein remaining % ≤ 80%) |
| CNC(=O)c1ccccc1Nc1cc(Nc2ccc(N3CCC(N(C)Cc4cccc(N5CCC(=O)NC5=O)c4)CC3)cc2OC)ncc1C(F)(F)F [GT-07650, 2-((2-((4-(4-((3-(2,4-dioxotetrahydropyrimidin-1(2H)-yl)benzyl)(methyl)amino)piperidin-1-yl)-2-methoxyphenyl)amino)-5-(trifluoromethyl)pyridin-4-yl)amino)-N-methylbenzamide] | A (A is defined as 0% ≤ substrate protein remaining % ≤ 80%) |
| CNC(=O)c1ccccc1Nc1cc(Nc2ccc(N3CCC(N(C)Cc4cccc(NC5CCC(=O)NC5=O)c4)CC3)cc2OC)ncc1C(F)(F)F (centres unmarked) [GT-07652, 2-((2-((4-(4-((3-((2,6-dioxopiperidin-3-yl)amino)benzyl)(methyl)amino)piperidin-1-yl)-2-methoxyphenyl)amino)-5-(trifluoromethyl)pyridin-4-yl)amino)-N-methylbenzamide] | A (A is defined as 0% ≤ substrate protein remaining % ≤ 80%) |
| CNC(=O)c1ccccc1Nc1cc(Nc2ccc(N3CCC(N(C)Cc4ccnc(N5CCC(=O)NC5=O)c4)CC3)cc2OC)ncc1C(F)(F)F [GT-07654, 2-((2-((4-(4-(((2-(2,4-dioxotetrahydropyrimidin-1(2H)-yl)pyridin-4-yl)methyl)(methyl)amino)piperidin-1-yl)-2-methoxyphenyl)amino)-5-(trifluoromethyl)pyridin-4-yl)amino)-N-methylbenzamide] | A (A is defined as 0% ≤ substrate protein remaining % ≤ 80%) |
| CNC(=O)c1ccccc1Nc1cc(Nc2ccc(N3CCC(N(C)Cc4ccc(C5CCC(=O)NC5=O)nc4)CC3)cc2OC)ncc1C(F)(F)F (centres unmarked) [GT-07657, 2-((2-((4-(4-(((6-(2,6-dioxopiperidin-3-yl)pyridin-3-yl)methyl)(methyl)amino)piperidin-1-yl)-2-methoxyphenyl)amino)-5-(trifluoromethyl)pyridin-4-yl)amino)-N-methylbenzamide] | A (A is defined as 0% ≤ substrate protein remaining % ≤ 80%) |
